In brackets after ≈: the same amount, converted by molar mass.
system: Enterococcus faecalis; assay: Antibacterial activity against vancomycin-sensitive Enterococcus faecalis ATCC 29212 assessed as bacterial growth inhibition incubated for 16 to 20 hrs by CLSI based two-fold serial dilution method; type: functional; details: time 16-20 hrs

| SMILES | MIC [µg/mL] |
| --- | --- |
| CC1=CC(O)=C2C(=O)c3c(ccc(-c4ccc5c(c4O)C(=O)C4=C(O)C=C(C)[C@H](O)[C@]4(C)O5)c3O)O[C@]2(C)C1=O | 2 (≈ 3.67 µM) |
| CC1=CC(O)=C2C(=O)c3c(ccc(-c4ccc5c(c4O)C(=O)[C@@]4(O)C(=O)C=C(C)[C@H](O)[C@]4(C)O5)c3O)O[C@]2(C)[C@H]1O | 16 (≈ 28.4 µM) |
| CC1=CC(O)=C2C(=O)c3c(ccc(-c4ccc(O)c(C(=O)c5c(O)cc(C)c(O)c5C)c4O)c3O)O[C@@]2(C)[C@H]1O | 2 (≈ 3.66 µM) |
| CC1=CC(O)=C2C(=O)c3c(ccc(-c4ccc5c(c4O)C(=O)C4=C(O)C[C@@H](C)[C@H](O)[C@@]4(C)O5)c3O)O[C@@]2(C)[C@H]1O | 2 (≈ 3.65 µM) |
| CC1=CC(O)=C2C(=O)c3c(O)ccc(-c4ccc5c(c4O)C(=O)C4=C(O)C=C(C)[C@H](O)[C@]4(C)O5)c3O[C@@]2(C)C1=O | 2 (≈ 3.67 µM) |

system: Staphylococcus aureus; assay: Antibacterial activity against methicillin-sensitive Staphylococcus aureus ATCC 29213 assessed as bacterial growth inhibition incubated for 16 to 20 hrs by CLSI based two-fold serial dilution method; type: functional; details: time 16-20 hrs

| SMILES | MIC [µg/mL] |
| --- | --- |
| CC1=CC(O)=C2C(=O)c3c(ccc(-c4ccc5c(c4O)C(=O)C4=C(O)C=C(C)[C@H](O)[C@]4(C)O5)c3O)O[C@]2(C)C1=O | 0.5 (≈ 0.918 µM) |
| CC1=CC(O)=C2C(=O)c3c(ccc(-c4ccc5c(c4O)C(=O)[C@@]4(O)C(=O)C=C(C)[C@H](O)[C@]4(C)O5)c3O)O[C@]2(C)[C@H]1O | 4 (≈ 7.11 µM) |
| CC1=CC(O)=C2C(=O)c3c(ccc(-c4ccc(O)c(C(=O)c5c(O)cc(C)c(O)c5C)c4O)c3O)O[C@@]2(C)[C@H]1O | 1 (≈ 1.83 µM) |
| CC1=CC(O)=C2C(=O)c3c(ccc(-c4ccc5c(c4O)C(=O)C4=C(O)C[C@@H](C)[C@H](O)[C@@]4(C)O5)c3O)O[C@@]2(C)[C@H]1O | 0.5 (≈ 0.912 µM) |
| CC1=CC(O)=C2C(=O)c3c(O)ccc(-c4ccc5c(c4O)C(=O)C4=C(O)C=C(C)[C@H](O)[C@]4(C)O5)c3O[C@@]2(C)C1=O | 0.5 (≈ 0.918 µM) |

system: Staphylococcus epidermidis; assay: Antibacterial activity against methicillin-sensitive Staphylococcus epidermidis ATCC 12228 assessed as bacterial growth inhibition incubated for 16 to 20 hrs by CLSI based two-fold serial dilution method; type: functional; details: time 16-20 hrs

| SMILES | MIC [µg/mL] |
| --- | --- |
| CC1=CC(O)=C2C(=O)c3c(ccc(-c4ccc5c(c4O)C(=O)C4=C(O)C=C(C)[C@H](O)[C@]4(C)O5)c3O)O[C@]2(C)C1=O | ≤ 0.125 |
| CC1=CC(O)=C2C(=O)c3c(ccc(-c4ccc5c(c4O)C(=O)[C@@]4(O)C(=O)C=C(C)[C@H](O)[C@]4(C)O5)c3O)O[C@]2(C)[C@H]1O | 0.5 (≈ 0.889 µM) |
| CC1=CC(O)=C2C(=O)c3c(ccc(-c4ccc(O)c(C(=O)c5c(O)cc(C)c(O)c5C)c4O)c3O)O[C@@]2(C)[C@H]1O | ≤ 0.125 |
| CC1=CC(O)=C2C(=O)c3c(ccc(-c4ccc5c(c4O)C(=O)C4=C(O)C[C@@H](C)[C@H](O)[C@@]4(C)O5)c3O)O[C@@]2(C)[C@H]1O | ≤ 0.125 |
| CC1=CC(O)=C2C(=O)c3c(O)ccc(-c4ccc5c(c4O)C(=O)C4=C(O)C=C(C)[C@H](O)[C@]4(C)O5)c3O[C@@]2(C)C1=O | ≤ 0.125 |

system: Enterococcus faecalis; assay: Antibacterial activity against vancomycin-resistant Enterococcus faecalis ATCC 51299 assessed as bacterial growth inhibition incubated for 16 to 20 hrs by CLSI based two-fold serial dilution method; type: functional; details: time 16-20 hrs

| SMILES | MIC [µg/mL] |
| --- | --- |
| CC1=CC(O)=C2C(=O)c3c(ccc(-c4ccc5c(c4O)C(=O)C4=C(O)C=C(C)[C@H](O)[C@]4(C)O5)c3O)O[C@]2(C)C1=O | 2 (≈ 3.67 µM) |
| CC1=CC(O)=C2C(=O)c3c(ccc(-c4ccc5c(c4O)C(=O)[C@@]4(O)C(=O)C=C(C)[C@H](O)[C@]4(C)O5)c3O)O[C@]2(C)[C@H]1O | 16 (≈ 28.4 µM) |
| CC1=CC(O)=C2C(=O)c3c(ccc(-c4ccc(O)c(C(=O)c5c(O)cc(C)c(O)c5C)c4O)c3O)O[C@@]2(C)[C@H]1O | 4 (≈ 7.32 µM) |
| CC1=CC(O)=C2C(=O)c3c(ccc(-c4ccc5c(c4O)C(=O)C4=C(O)C[C@@H](C)[C@H](O)[C@@]4(C)O5)c3O)O[C@@]2(C)[C@H]1O | 4 (≈ 7.29 µM) |
| CC1=CC(O)=C2C(=O)c3c(O)ccc(-c4ccc5c(c4O)C(=O)C4=C(O)C=C(C)[C@H](O)[C@]4(C)O5)c3O[C@@]2(C)C1=O | 2 (≈ 3.67 µM) |

system: Enterococcus faecium; assay: Antibacterial activity against vancomycin-resistant Enterococcus faecium ATCC 700221 assessed as bacterial growth inhibition incubated for 16 to 20 hrs by CLSI based two-fold serial dilution method; type: functional; details: time 16-20 hrs

| SMILES | MIC [µg/mL] |
| --- | --- |
| CC1=CC(O)=C2C(=O)c3c(ccc(-c4ccc5c(c4O)C(=O)C4=C(O)C=C(C)[C@H](O)[C@]4(C)O5)c3O)O[C@]2(C)C1=O | 0.5 (≈ 0.918 µM) |
| CC1=CC(O)=C2C(=O)c3c(ccc(-c4ccc5c(c4O)C(=O)[C@@]4(O)C(=O)C=C(C)[C@H](O)[C@]4(C)O5)c3O)O[C@]2(C)[C@H]1O | 4 (≈ 7.11 µM) |
| CC1=CC(O)=C2C(=O)c3c(ccc(-c4ccc(O)c(C(=O)c5c(O)cc(C)c(O)c5C)c4O)c3O)O[C@@]2(C)[C@H]1O | 1 (≈ 1.83 µM) |
| CC1=CC(O)=C2C(=O)c3c(ccc(-c4ccc5c(c4O)C(=O)C4=C(O)C[C@@H](C)[C@H](O)[C@@]4(C)O5)c3O)O[C@@]2(C)[C@H]1O | 1 (≈ 1.82 µM) |
| CC1=CC(O)=C2C(=O)c3c(O)ccc(-c4ccc5c(c4O)C(=O)C4=C(O)C=C(C)[C@H](O)[C@]4(C)O5)c3O[C@@]2(C)C1=O | 0.5 (≈ 0.918 µM) |

system: Staphylococcus aureus; assay: Antibacterial activity against methicillin-resistant Staphylococcus aureus ATCC 700698 assessed as bacterial growth inhibition incubated for 16 to 20 hrs by CLSI based two-fold serial dilution method; type: functional; details: time 16-20 hrs

| SMILES | MIC [µg/mL] |
| --- | --- |
| CC1=CC(O)=C2C(=O)c3c(ccc(-c4ccc5c(c4O)C(=O)C4=C(O)C=C(C)[C@H](O)[C@]4(C)O5)c3O)O[C@]2(C)C1=O | 0.25 (≈ 0.459 µM) |
| CC1=CC(O)=C2C(=O)c3c(ccc(-c4ccc5c(c4O)C(=O)[C@@]4(O)C(=O)C=C(C)[C@H](O)[C@]4(C)O5)c3O)O[C@]2(C)[C@H]1O | 4 (≈ 7.11 µM) |
| CC1=CC(O)=C2C(=O)c3c(ccc(-c4ccc(O)c(C(=O)c5c(O)cc(C)c(O)c5C)c4O)c3O)O[C@@]2(C)[C@H]1O | 0.5 (≈ 0.915 µM) |
| CC1=CC(O)=C2C(=O)c3c(ccc(-c4ccc5c(c4O)C(=O)C4=C(O)C[C@@H](C)[C@H](O)[C@@]4(C)O5)c3O)O[C@@]2(C)[C@H]1O | 0.25 (≈ 0.456 µM) |
| CC1=CC(O)=C2C(=O)c3c(O)ccc(-c4ccc5c(c4O)C(=O)C4=C(O)C=C(C)[C@H](O)[C@]4(C)O5)c3O[C@@]2(C)C1=O | 0.25 (≈ 0.459 µM) |

system: Staphylococcus aureus; assay: Antibacterial activity against methicillin-resistant Staphylococcus aureus ATCC 43300 assessed as bacterial growth inhibition incubated for 16 to 20 hrs by CLSI based two-fold serial dilution method; type: functional; details: time 16-20 hrs

| SMILES | MIC [µg/mL] |
| --- | --- |
| CC1=CC(O)=C2C(=O)c3c(ccc(-c4ccc5c(c4O)C(=O)C4=C(O)C=C(C)[C@H](O)[C@]4(C)O5)c3O)O[C@]2(C)C1=O | 0.5 (≈ 0.918 µM) |
| CC1=CC(O)=C2C(=O)c3c(ccc(-c4ccc5c(c4O)C(=O)[C@@]4(O)C(=O)C=C(C)[C@H](O)[C@]4(C)O5)c3O)O[C@]2(C)[C@H]1O | 4 (≈ 7.11 µM) |
| CC1=CC(O)=C2C(=O)c3c(ccc(-c4ccc(O)c(C(=O)c5c(O)cc(C)c(O)c5C)c4O)c3O)O[C@@]2(C)[C@H]1O | 1 (≈ 1.83 µM) |
| CC1=CC(O)=C2C(=O)c3c(ccc(-c4ccc5c(c4O)C(=O)C4=C(O)C[C@@H](C)[C@H](O)[C@@]4(C)O5)c3O)O[C@@]2(C)[C@H]1O | 0.5 (≈ 0.912 µM) |
| CC1=CC(O)=C2C(=O)c3c(O)ccc(-c4ccc5c(c4O)C(=O)C4=C(O)C=C(C)[C@H](O)[C@]4(C)O5)c3O[C@@]2(C)C1=O | 0.5 (≈ 0.918 µM) |

From ChEMBL document CHEMBL5370644, “Subplenones A-J: Dimeric Xanthones with Antibacterial Activity from the Endophytic Fungus Subplenodomus sp. CPCC 401465” (2023)
